Values after ≈ are worked out from the molar mass of the structure shown. Active and inactive are the calls of the source. The rule behind the calls is not given here.
How the values were obtained:
[1] = target: Metabotropic glutamate receptor 1 (Homo sapiens, UniProt Q13255); test: Antagonist activity at human mGluR1 expressed in CHO cells assessed as calcium flux by FLIPR assay; assay type: functional, cell-based
[2] = target: Metabotropic glutamate receptor 1 (Mus musculus, UniProt P97772); test: Antagonist activity at mouse mGluR1 expressed in CHO cells assessed as calcium flux by FLIPR assay; assay type: functional, cell-based
Metabotropic glutamate receptor 1 (Mus musculus, UniProt P97772), sequence (P97772 whole entry): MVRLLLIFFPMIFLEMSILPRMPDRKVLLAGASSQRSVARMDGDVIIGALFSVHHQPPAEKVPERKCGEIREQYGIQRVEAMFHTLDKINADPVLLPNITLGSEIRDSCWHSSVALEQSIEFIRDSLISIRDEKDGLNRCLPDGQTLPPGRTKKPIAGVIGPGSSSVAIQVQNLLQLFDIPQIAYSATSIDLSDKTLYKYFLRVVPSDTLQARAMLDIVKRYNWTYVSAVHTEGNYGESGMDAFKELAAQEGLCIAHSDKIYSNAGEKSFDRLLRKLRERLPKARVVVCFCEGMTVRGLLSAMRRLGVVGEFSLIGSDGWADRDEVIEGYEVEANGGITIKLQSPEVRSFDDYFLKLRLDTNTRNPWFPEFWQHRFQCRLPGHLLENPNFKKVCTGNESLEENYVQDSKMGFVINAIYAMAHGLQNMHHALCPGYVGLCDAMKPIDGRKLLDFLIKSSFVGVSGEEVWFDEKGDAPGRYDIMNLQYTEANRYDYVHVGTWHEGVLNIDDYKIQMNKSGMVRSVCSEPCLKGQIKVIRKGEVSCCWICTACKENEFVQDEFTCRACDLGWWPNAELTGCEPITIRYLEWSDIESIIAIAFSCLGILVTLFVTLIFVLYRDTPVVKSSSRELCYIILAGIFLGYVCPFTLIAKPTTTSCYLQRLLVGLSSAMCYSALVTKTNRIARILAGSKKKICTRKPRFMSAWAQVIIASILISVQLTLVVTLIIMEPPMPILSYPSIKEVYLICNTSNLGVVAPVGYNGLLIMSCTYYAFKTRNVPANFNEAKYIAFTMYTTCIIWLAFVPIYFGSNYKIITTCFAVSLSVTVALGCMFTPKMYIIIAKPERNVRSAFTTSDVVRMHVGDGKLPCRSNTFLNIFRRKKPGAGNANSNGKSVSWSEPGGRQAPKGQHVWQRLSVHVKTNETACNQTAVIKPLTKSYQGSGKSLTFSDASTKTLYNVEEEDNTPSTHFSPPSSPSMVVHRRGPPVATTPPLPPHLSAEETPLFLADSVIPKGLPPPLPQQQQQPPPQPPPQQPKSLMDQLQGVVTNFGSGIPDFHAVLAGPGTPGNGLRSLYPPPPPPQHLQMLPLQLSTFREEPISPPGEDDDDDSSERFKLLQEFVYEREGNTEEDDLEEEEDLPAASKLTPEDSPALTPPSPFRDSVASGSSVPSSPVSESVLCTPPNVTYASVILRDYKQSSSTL

[3] = target: Metabotropic glutamate receptor 5 (Homo sapiens, UniProt P41594); test: Antagonist activity at human mGluR5 expressed in CHO cells assessed as calcium flux by FLIPR assay; assay type: functional, cell-based
Metabotropic glutamate receptor 5, sequence (P41594 whole entry): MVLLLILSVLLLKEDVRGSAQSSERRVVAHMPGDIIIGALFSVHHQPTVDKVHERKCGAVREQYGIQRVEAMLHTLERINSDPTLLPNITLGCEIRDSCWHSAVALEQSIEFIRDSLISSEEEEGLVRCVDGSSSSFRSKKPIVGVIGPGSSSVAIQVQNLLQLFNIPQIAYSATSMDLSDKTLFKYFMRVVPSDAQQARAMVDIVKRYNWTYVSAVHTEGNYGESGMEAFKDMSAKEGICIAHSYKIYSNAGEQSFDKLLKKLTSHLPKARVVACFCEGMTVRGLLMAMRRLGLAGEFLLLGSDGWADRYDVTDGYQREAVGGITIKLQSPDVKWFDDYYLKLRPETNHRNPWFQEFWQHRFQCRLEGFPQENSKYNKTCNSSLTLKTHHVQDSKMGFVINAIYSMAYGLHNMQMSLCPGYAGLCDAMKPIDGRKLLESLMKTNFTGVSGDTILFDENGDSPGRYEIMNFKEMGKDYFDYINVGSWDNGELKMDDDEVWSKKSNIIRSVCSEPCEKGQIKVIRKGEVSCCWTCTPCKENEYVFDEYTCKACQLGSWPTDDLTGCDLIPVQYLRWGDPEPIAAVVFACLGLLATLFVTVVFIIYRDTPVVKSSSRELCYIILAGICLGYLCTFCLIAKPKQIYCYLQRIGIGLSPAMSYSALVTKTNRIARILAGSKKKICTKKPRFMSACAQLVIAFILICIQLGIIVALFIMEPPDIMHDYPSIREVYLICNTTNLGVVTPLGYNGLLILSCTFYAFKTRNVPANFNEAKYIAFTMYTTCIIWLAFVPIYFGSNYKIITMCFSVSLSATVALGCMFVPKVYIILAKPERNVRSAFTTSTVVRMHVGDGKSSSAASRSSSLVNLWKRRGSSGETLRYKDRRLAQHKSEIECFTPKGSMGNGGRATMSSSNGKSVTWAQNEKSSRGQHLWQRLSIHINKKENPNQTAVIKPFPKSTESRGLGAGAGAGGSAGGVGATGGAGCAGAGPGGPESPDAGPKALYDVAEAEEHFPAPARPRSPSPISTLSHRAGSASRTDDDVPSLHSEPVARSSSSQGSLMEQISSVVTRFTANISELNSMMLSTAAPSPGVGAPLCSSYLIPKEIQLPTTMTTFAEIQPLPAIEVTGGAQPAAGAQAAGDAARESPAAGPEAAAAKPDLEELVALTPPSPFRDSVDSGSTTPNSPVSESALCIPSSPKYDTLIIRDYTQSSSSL

[4] = Octanol-water partition coefficient, log D at pH 7.4 by shake flask method; assay type: physicochemical
[5] = target: Metabotropic glutamate receptor 2 (Homo sapiens) (UniProt Q14416); test: Activity at human mGluR2 expressed in CHO cells at 10 uM by [35S]GTPgammaS binding assay; assay type: functional, cell-based
[6] = target: Metabotropic glutamate receptor 4 (Homo sapiens) (UniProt Q14833); test: Activity at human mGluR4 expressed in CHO cells at 10 uM by [35S]GTPgammaS binding assay; assay type: functional, cell-based
[7] = target: Metabotropic glutamate receptor 6 (Homo sapiens) (UniProt O15303); test: Activity at human mGluR6 expressed in CHO cells at 10 uM by [35S]GTPgammaS binding assay; assay type: functional, cell-based
[8] = target: Metabotropic glutamate receptor 7 (Homo sapiens) (UniProt Q14831); test: Activity at human mGluR7 expressed in CHO cells at 10 uM by [35S]GTPgammaS binding assay; assay type: functional, cell-based
[9] = target: Metabotropic glutamate receptor 8 (Homo sapiens) (UniProt O00222); test: Activity at human mGluR8 expressed in CHO-K1 cells at 10 uM by [35S]GTPgammaS binding assay; assay type: functional, cell-based
Metabotropic glutamate receptor 8 (Homo sapiens), sequence (O00222 whole entry): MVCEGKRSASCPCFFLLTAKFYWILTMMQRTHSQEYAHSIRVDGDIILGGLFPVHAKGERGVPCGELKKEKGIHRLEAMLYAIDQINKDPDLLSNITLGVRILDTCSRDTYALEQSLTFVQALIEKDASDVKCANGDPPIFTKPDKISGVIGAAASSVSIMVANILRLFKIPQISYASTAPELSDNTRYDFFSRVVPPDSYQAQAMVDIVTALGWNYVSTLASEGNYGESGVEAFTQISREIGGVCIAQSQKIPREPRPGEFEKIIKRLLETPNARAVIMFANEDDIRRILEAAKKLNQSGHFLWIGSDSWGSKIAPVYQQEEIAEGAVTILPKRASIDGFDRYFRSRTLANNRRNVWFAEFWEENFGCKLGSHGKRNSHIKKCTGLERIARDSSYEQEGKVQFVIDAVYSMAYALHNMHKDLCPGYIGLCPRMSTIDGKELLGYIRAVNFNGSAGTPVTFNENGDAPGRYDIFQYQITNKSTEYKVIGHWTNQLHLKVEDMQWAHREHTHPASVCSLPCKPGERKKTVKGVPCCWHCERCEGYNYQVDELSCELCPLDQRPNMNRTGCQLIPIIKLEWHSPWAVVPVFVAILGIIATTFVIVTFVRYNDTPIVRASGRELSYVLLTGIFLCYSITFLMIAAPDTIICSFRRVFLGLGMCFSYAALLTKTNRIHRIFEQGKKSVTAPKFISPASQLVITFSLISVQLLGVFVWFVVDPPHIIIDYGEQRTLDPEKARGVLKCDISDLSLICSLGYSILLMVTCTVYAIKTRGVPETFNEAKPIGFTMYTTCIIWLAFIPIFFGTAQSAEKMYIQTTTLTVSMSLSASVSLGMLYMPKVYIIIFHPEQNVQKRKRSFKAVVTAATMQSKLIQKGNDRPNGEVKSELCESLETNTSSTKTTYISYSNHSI

[10] = Inhibition of AMPA receptor
[11] = Inhibition of NMDA receptor
[12] = Inhibition of kainate receptor
[13] = Solubility in water by ultra performance liquid chromatography; assay type: physicochemical
[14] = Metabolic stability in human liver microsomes at 1 uM after 30 mins; assay type: ADME, Microsome; details: read-out: Stability
[15] = Metabolic stability in rat liver microsomes at 1 uM after 30 mins; assay type: ADME, Microsome; details: read-out: Stability
[16] = Metabolic stability in mouse liver microsomes at 1 uM after 30 mins; assay type: ADME, Microsome; details: read-out: Stability
[17] = system: Mus musculus; test: Inhibition of (S)-3,5-[…]-induced face washing behavior in mouse at 10 to 30 mg/kg, ip administered 30 mins before (S)-3,5-DHPG measured after 5 mins; assay type: functional, organism-based
[18] = system: Mus musculus; test: Inhibition of (S)-3,5-[…]-induced face washing behavior in mouse at 10 to 30 mg/kg, po administered 30 mins before (S)-3,5-DHPG measured after 5 mins; assay type: functional, organism-based
[19] = Plasma concentration in mouse at 10 mg/kg, po after 30 mins; assay type: ADME, organism-based; parameters: dose 10 mg/kg, route oral
[20] = system: Mus musculus; test: Brain concentration in mouse at 10 mg/kg, po after 30 mins; assay type: ADME, organism-based; parameters: dose 10 mg/kg, route oral; details: in vivo, 0.5 h
[21] = Half life in rat at 1 mg/kg, iv; assay type: ADME, organism-based; parameters: dose 1 mg/kg, route intravenous; details: in vivo
[22] = Total plasma clearance in rat at 1 mg/kg, iv; assay type: ADME, organism-based; parameters: dose 1 mg/kg, route intravenous
[23] = Oral bioavailability in rat at 3 mg/kg; assay type: ADME, organism-based; details: in vivo
[24] = system: Mus musculus; test: Inhibition of (S)-3,5-[…]-induced face washing behavior in mouse administered 30 mins before (S)-3,5-DHPG measured after 5 mins; assay type: functional, organism-based
[25] = system: Mus musculus; test: Inhibition of (S)-3,5-[…]-induced face washing behavior in mouse at 3 to 10 mg/kg, ip administered 30 mins before (S)-3,5-DHPG measured after 5 mins; assay type: functional, organism-based

Metabotropic glutamate receptor 1 (Homo sapiens, UniProt Q13255), sequence (Q13255 whole entry): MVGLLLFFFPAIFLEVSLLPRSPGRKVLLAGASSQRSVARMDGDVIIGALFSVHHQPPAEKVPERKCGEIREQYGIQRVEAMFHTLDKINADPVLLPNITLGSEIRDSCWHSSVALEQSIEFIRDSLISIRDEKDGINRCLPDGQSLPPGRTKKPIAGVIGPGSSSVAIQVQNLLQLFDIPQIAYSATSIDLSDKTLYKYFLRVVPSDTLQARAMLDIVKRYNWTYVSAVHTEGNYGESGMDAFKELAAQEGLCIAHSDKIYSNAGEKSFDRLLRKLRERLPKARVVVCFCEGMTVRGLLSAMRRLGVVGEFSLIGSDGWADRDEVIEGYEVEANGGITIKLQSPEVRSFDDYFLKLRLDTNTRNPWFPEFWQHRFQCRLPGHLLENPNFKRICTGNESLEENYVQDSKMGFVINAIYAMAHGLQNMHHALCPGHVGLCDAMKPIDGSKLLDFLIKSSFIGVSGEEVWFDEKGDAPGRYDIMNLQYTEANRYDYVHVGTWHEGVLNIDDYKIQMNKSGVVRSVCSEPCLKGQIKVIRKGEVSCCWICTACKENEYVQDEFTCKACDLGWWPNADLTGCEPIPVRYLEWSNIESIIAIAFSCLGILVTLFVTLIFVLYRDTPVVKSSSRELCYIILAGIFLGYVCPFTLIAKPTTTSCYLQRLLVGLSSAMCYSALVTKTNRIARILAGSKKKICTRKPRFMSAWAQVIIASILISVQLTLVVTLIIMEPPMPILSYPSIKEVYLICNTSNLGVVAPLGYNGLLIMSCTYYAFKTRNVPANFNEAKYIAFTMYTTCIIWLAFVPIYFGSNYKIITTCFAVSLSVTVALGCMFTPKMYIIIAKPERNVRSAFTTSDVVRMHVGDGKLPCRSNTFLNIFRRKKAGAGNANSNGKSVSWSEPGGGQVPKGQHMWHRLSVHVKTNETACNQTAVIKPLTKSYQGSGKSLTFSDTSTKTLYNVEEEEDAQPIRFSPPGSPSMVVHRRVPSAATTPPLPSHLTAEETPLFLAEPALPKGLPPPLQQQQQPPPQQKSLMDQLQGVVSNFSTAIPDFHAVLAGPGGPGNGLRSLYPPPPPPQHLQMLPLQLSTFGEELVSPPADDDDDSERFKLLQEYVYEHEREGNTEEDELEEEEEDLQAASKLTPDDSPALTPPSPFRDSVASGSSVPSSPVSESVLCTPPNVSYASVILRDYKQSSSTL

| Compound | IC50 [1] [nM] | IC50 [2] [nM] | IC50 [3] [nM] | logD [4] | other results |
| --- | --- | --- | --- | --- | --- |
| CC(C)(C)CC(=O)N1CC=C(c2cn(-c3ccccc3F)nn2)CC1 | 120 | 160 | > 10000 | – | – |
| Cc1c(C2=CCN(C(=O)N(C)C(C)C)CC2)nnn1-c1cccnc1F | – | 3.1 | 6200 | 2.1 | Activity [5]: inactive; Activity [6]: inactive; Activity [7]: inactive; Activity [8]: inactive; Activity [9]: inactive; IC50 [10]: > 10000 nM; IC50 [11]: > 10000 nM; IC50 [12]: > 10000 nM; solubility [13]: > 170 µM; remaining at 0.5 h, 1 µM [14]: 85%; remaining at 0.5 h, 1 µM [15]: 61%; remaining at 0.5 h, 1 µM [16]: 27%; Activity [17]: Active; Activity [18]: Active; concentration at 0.5 h [19]: 210 nM; Drug uptake [20]: 0.17 nmol/g; half-life [21]: 12 min; clearance [22]: 57 mL/min/kg; bioavailability [23]: 18% |
| CC(C)(C)OC(=O)N1CC=C(c2cn(-c3cccnc3)nn2)CC1 | 55 | 180 | 8300 | 3 | – |
| CC(C)OC(=O)N1CC=C(c2cn(-c3cccnc3F)nn2)CC1 | 39 | 180 | 3900 | 2.8 | – |
| CC(C)(C)OC(=O)N1CC=C(c2cn(-c3ccccn3)nn2)CC1 | 49 | 150 | 8700 | > 4 | – |
| COc1ccccc1-n1cc(C2=CCN(C(=O)OC(C)(C)C)CC2)nn1 | 590 | 1600 | 4000 | – | – |
| CC(C)(C)OC(=O)N1CC=C(c2cn(-c3cccc(F)c3)nn2)CC1 | 18 | 39 | 1100 | > 4 | – |
| Cc1c(C2=CCN(C(=O)OC(C)C)CC2)nnn1-c1cccnc1F | 7.2 | 3.3 | 40 | 2.8 | – |
| CC(C)(C)OC(=O)N1CC=C(c2cn(-c3ccc(F)cc3)nn2)CC1 | 16 | 31 | 1100 | > 4 | – |
| CC(C)(C)NC(=O)N1CC=C(c2cn(-c3ccccc3F)nn2)CC1 | 57 | 290 | 8600 | 3.2 | – |
| CC(C)(C)OC(=O)N1CC=C(c2cn(-c3cccnc3F)nn2)CC1 | 2.6 | 12 | 4300 | 3.1 | – |
| NC1(C(=O)O)CCc2cc(C(=O)O)ccc21 (racemic) | – | – | – | – | Activity [24]: Active |
| Cc1c(C2=CCN(C(=O)OC(C)(C)C)CC2)nnn1-c1cccnc1F | 7 | 1.5 | 170 | 2.9 | solubility [13]: 155 µM (≈ 55.7 µg/mL); remaining at 0.5 h, 1 µM [14]: 90%; remaining at 0.5 h, 1 µM [15]: 70%; remaining at 0.5 h, 1 µM [16]: 2%; Activity [25]: Active |
| CC(C)(C)OC(=O)N1CC=C(c2cn(-c3ccncc3)nn2)CC1 | 220 | 1000 | > 10000 | – | – |
| Cc1ccccc1-n1cc(C2=CCN(C(=O)OC(C)(C)C)CC2)nn1 | 11 | 58 | 880 | > 4 | – |
| CC(C)(C)OC(=O)N1CC=C(c2cn(-c3ccccc3)nn2)CC1 | 9.8 | 24 | 820 | > 4 | solubility [13]: 2.4 µM (≈ 0.783 µg/mL); remaining at 0.5 h, 1 µM [14]: 57%; remaining at 0.5 h, 1 µM [15]: 16% |
| CC(C)(C)OC(=O)N1CC=C(c2cn(-c3ccccc3F)nn2)CC1 | 6.3 | 16 | 1000 | > 4 | – |
| N[C@H](C(=O)O)c1ccc(C(=O)O)cc1 | – | – | – | – | Activity [24]: Active |

— ChEMBL document CHEMBL1142531, “Discovery and biological profile of 4-(1-aryltriazol-4-yl)-tetrahydropyridines as an orally active new class of metabotropic glutamate receptor 1 antagonist” (Bioorg Med Chem, 2008)
